Test results as given in patent US20220370464A1, “COMPOSITIONS AND METHODS OF TREATING OR PREVENTING OCULAR INFECTIONS WITH FILOCICLOVIR” (Microbiotix, Inc., priority 2019, published 2022).
Read-outs that look alike come from different tables or passages of the source.

What was measured:
AdV5 [1] = assay: Adenovirus/NZW rabbit ocular model; assay type: in vivo, New Zealand White (NZW) rabbit
Method: The ability of filociclovir to inhibit adenovirus-related conjunctivitis was tested in a New Zealand White (NZW) rabbit ocular model.
20 NZW rabbits (1.1-1.4 kg) were given general anesthesia with ketamine & xylazine, topical anesthesia with proparacaine, and corneal scarification (12 cross-hatched strokes of a #25 needle) followed by inoculation in both eyes with 50 μl of […] of AdV5 M (6.0×10^8 PFU/ml). Eyes were closed and gently rubbed for 5 seconds to ensure contact of the virus on all ocular surfaces. All rabbits were treated with analgesia in the form of intramuscular injections of ketoprofen (1.5 mg/kg).
Beginning 2 hours after inoculation, all eyes were cultured for virus. Following topical anesthesia with proparacaine, a single cotton-tipped swab was placed into the lower fornix of each eye, rolled over the cornea into the upper fornix to recover adenovirus from the tear film and corneal and conjunctival surfaces. The swabs from each eye were placed individually into tubes containing 1 ml of outgrowth media and were frozen at −80° C. pending plaque assay.
On Day 1, the rabbits were divided into 4 treatment groups for drug administration as set forth in the chart below. The four treatment groups were 0.5% Filociclovir; 0.1% Filociclovir; 0.5% cidofovir; and the negative vehicle control (10% 2-Hydroxpropyl)-β-cyclodextrin, 0.2% cremophore).
Treatments began on Day 1 and drops were administered with at least a 2-hour interval between drops. The eyes of each rabbit were cultured for virus on days 1, 3, 4, 5, 7, 9, 11, and 14 post-inoculation (PI) at least 1 hour after the final drop. At various times during the course of the experiment, AdV5 titers were determined on A549 cell monolayers using a standard plaque assay. The ocular cultures to be titered were thawed, diluted (1:10) and inoculated onto A549 monolayers. The virus was adsorbed for 3 hours. Following adsorption, 1 ml of media plus 0.5% methylcellulose was added to each well, and the plates were incubated at 37° C. in a 5% CO2-water vapor atmosphere. After 7 days incubation, the cells were stained with 0.5% gentian violet, and the numbers of plaques were counted under a dissecting microscope (25λ). The viral titers were then calculated and expressed as plaque-forming units per milliliter (PFU/ml). The data were analyzed statistically using True Epistat and/or Minitab statistical software. Outcome measures included Daily AdV5-Positive Cultures per Total (FIG. 9), Duration of Shedding (FIG. 10) and Daily Viral Titers (FIG. 11). Significance was established at the p≤0.05 confidence level.

[2] = test system: panel of ocular adenovirus types (Ad3, Ad4, Ad5, Ad7a, Ad8, Ad19/64, and Ad37); assay: Plaque reduction antiviral IC50 assay, whole panel of ocular adenovirus types; assay type: cell-based, adenovirus Species B, C, D, and E; settings: unidentified adenovirus
Method: (§1) The effectiveness of filociclovir to inhibit a number of adenovirus strains associated with conjunctivitis were tested in an in vitro assay. To determine the in vitro IC50 concentrations, i.e., the concentration of filociclovir that inhibits adenovirus plaque formation by 50%, filociclovir and cidofovir (CDV) were tested against a panel of 7 ocular types of adenovirus.
(§2) 42 A549 24-well multiplates (1 per each drug and each virus strain) were prepared. 7 adenovirus serotypes were tested at a time. Virus dilutions from known titer of stock viruses (approx. 100 PFU/0.1 ml) were prepared with AdV3 L, AdV4 H, AdV5 M, AdV7a J, AdV8 E, AdV 19/64 K, and AdV37 ATCC. 0.1 ml (containing approx. 100 PFU) of each of the 7 viruses were plated onto all 24 wells of an A549 multiplate and incubated at 37° C. in a 5% CO2 water-vapor atmosphere for 3 hours.
(§3) Dilutions of filociclovir and cidofovir were prepared at 400, 40, 4.0, 0.4, 0.04, and 0.004 μM in 2× nutrient tissue culture media, following the dilution protocol: 7.5 ml of each of filociclovir and cidofovir dilution was added to a tube and 22.5 ml of methylcellulose in outgrowth medium (OG) was then added to each tube. 1 ml of each filociclovir and cidofovir dilutions was added to an additional 15 ml tube and 3 ml of OG was added to each tube. This was the overlay for the Adv8 plates. Normal methylcellulose overlay medium without any drug was used for the control wells for each plate.
(§4) For each virus plate, 3 wells were overlaid with each of the 6 final filociclovir and cidofovir concentrations (100, 10, 1.0, 0.1, 0.01, and 0.001 μM) and 6 wells with the control media. Plates were incubated at 37° C. in a 5% CO2 water-vapor atmosphere until plaques were visible. When plaques became visible, plates were stained with gentian violet and plaques were counted at 25λ using a dissecting microscope. The IC50 concentrations were determined from Fitted Line Plot regression analysis using Minitab. All assays were performed in triplicate.

AdV64 = assay: Plaque reduction antiviral IC50 assay in A549, AdV64; assay type: cell-based, adenovirus 19/64; settings: unidentified adenovirus
Method: as §1, §2, §3, §4

AdV8 = assay: Plaque reduction antiviral IC50 assay in A549, AdV8; assay type: cell-based, adenovirus 8
Method: as §1, §2, §3, §4

AdV3 = assay: Plaque reduction antiviral IC50 assay in A549, AdV3; assay type: cell-based, adenovirus 3; settings: Human mastadenovirus B
Method: as §1, §2, §3, §4

Adenovirus 5 (AdV5) = assay: Cytopathic effects (CPE) reduction assay, AdV5 in HFF cells, 384-well; assay type: cell-based, human adenovirus 5 (AdV5); settings: for selectivity ratio: human, adenovirus 5, HFF cells, read-out: SI (selective index, CC50/EC50)
Method: Antiviral and cytotoxicity data were obtained in a series of three to five separate experiments for each virus to provide an accurate estimate of antiviral activity and statistical data. Each assay included positive and negative control compounds as well as infected and uninfected controls to ensure the integrity of the experiment.
The CPE reduction assays were performed in monolayers of human foreskin fibroblast (HFF) cells (5000/well) in 384-well plates in assay media consisting of MEM with Earle's salts, 2% FBS and standard concentrations of L-glutamine, penicillin and gentamycin. 5000 cells were seeded in 384-well microtiter plates and incubated at 37° C. in a humidified 5% CO2 incubator for 24 hours to allow for formation of confluent monolayers.
Cell monolayers were infected at a multiplicity of infection (MOI) of approximately 0.005 PFU/cell with virus strains including AdV5. […] Cytopathology was determined by the addition of CellTiter-Glo® reagent (Promega, Madison, Wis.). Concentrations of antiviral test compounds sufficient to reduce CPE by 50% (EC50) were interpolated from the experimental data using standard methods in Microsoft® Excel.

AdV4 = assay: Plaque reduction antiviral IC50 assay in A549, AdV4; assay type: cell-based, adenovirus 4; settings: Human mastadenovirus E
Method: as §1, §2, §3, §4

AdV37 = assay: Plaque reduction antiviral IC50 assay in A549, AdV37; assay type: cell-based, adenovirus 37; settings: unidentified adenovirus
Method: as §1, §2, §3, §4

AdV5 [3] = assay: Plaque reduction antiviral IC50 assay in A549, AdV5; assay type: cell-based, adenovirus 5; settings: Human mastadenovirus C
Method: as §1, §2, §3, §4

[4] = 0.5% topical 2 times daily for 7 days, compared with Vehicle control
[5] = read-out: mean IC50 concentrations across the panel (upper bound)
[6] = read-out: range of mean IC50 concentrations across the panel
[7] = 0.1% topical 4 times daily for 10 days, compared with Vehicle control
[8] = 0.5% filociclovir compared with 0.5% cidofovir
[9] = 0.5% filociclovir compared with the 0.1% filociclovir group
[10] = 0.5% topical 4 times daily for 10 days, compared with Vehicle control

SMILES | IC50 [2, 5] [µM] | IC50 [2, 6] [µM] | IC50 (AdV64; read-out: Mean IC50) [µM] | IC50 (AdV64; read-out: Median IC50) [µM] | IC50 (AdV8; read-out: Mean IC50) [µM] | IC50 (AdV8; read-out: Median IC50) [µM] | IC50 (AdV3; read-out: Mean IC50) [µM] | IC50 (AdV3; read-out: Median IC50) [µM] | selectivity ratio (Adenovirus 5 (AdV5)) | IC50 (AdV4; read-out: Mean IC50) [µM] | IC50 (AdV4; read-out: Median IC50) [µM] | IC50 (AdV37; read-out: Mean IC50) [µM] | IC50 (AdV37; read-out: Median IC50) [µM] | IC50 (AdV5 [3]; read-out: Mean IC50) [µM] | IC50 (AdV5 [3]; read-out: Median IC50) [µM] | also measured
Nc1ccn(C[C@@H](CO)OCP(=O)(O)O)c(=O)n1 [CDV, cidofovir, reference compound] | < 31 | 0.487 to 30.3 | 4.09 | 4.94 | 0.487 | 0.474 | 5.78 | 6.02 | 24 | 8.71 | 9.43 | 3.96 | 0.382 | 30.3 | 38.8 | adenovirus positive cultures per total (FIG. 9) (AdV5 [1]; [4]): fewer number of adenovirus positive cultures per total on Days 7, 9, and 11; adenovirus titers (FIG. 11) (AdV5 [1]; [4]): significantly lower adenovirus titers on Days 3, 4, 5, 7, 9, and 11; duration of shedding (FIG. 10) (AdV5 [1]; [4]): shorter duration of shedding; EC50 (Adenovirus 5 (AdV5); Human mastadenovirus C, AdV 384 Well CPE, HFF cells, average and SD from five independent experiments): 4 ± 2 µM
Nc1nc2c(ncn2/C=C2/CC2(CO)CO)c(=O)[nH]1 [Filociclovir, 2-amino-9-{(Z)-[2,2-bis(hydroxymethyl)cyclopropylidene]methyl}-3,9-dihydro-6H-purin-6-one] | < 5 | 0.496 to 4.68 | 1.86 | 0.424 | 0.496 | 0.485 | 0.778 | 0.756 | 43 | 4.31 | 4.24 | 3.53 | 4.52 | 4.68 | 4.62 | adenovirus positive cultures per total (FIG. 9) (AdV5 [1]; [7]): fewer number of adenovirus positive cultures per total on Days 7, 9, and 11; adenovirus titers (FIG. 11) (AdV5 [1]; [7]): significantly lower adenovirus titers on Days 1, 3, 4, 5, 7, 9, and 11; duration of shedding (FIG. 10) (AdV5 [1]; [7]): shorter duration of shedding; adenovirus positive cultures per total (AdV5 [1]; [8]): fewer number of adenovirus positive cultures per total on Day 4; adenovirus titers (AdV5 [1]; [8]): significantly lower adenovirus titers on Days 1, 3, 4, and 5; adenovirus positive cultures per total (FIG. 9) (AdV5 [1]; [9]): fewer number of adenovirus positive cultures per total on Day 4; adenovirus titers (FIG. 11) (AdV5 [1]; [9]): significantly lower adenovirus titers on Days 3, 4, and 5; adenovirus positive cultures per total (FIG. 9) (AdV5 [1]; [10]): fewer number of adenovirus positive cultures per total on Days 4, 5, 7, 9, and 11; adenovirus titers (FIG. 11) (AdV5 [1]; [10]): significantly lower adenovirus titers on Days 1, 3, 4, 5, 7, 9, and 11; duration of adenovirus shedding (FIG. 10) (AdV5 [1]; [10]): shorter duration of adenovirus shedding; concentration effective to reduce AdV replication (FIG. 1) (Adenovirus 5 (AdV5); AdV5, tested 0.01 to 100 μM, 'as low as'): ≥ 0.2 µM
